Measurements as given in the supplement of paper PMC10307832.

Compound: Cc1ccc(NC(=O)c2ccc(CN3CCN(C)CC3)cc2)cc1Nc1nccc(-c2cccnc2)n1 [Imatinib] + CC(=O)Nc1cccc(-n2c(=O)n(C3CC3)c(=O)c3c(Nc4ccc(I)cc4F)n(C)c(=O)c(C)c32)c1 [Trametinib] (partner 0.02 µM)
Experiment: relative viability (nuclei count vs DMSO), 5 days (fraction); higher = more cells survive
Procedure, shortened: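 Lung cancer cell lines were seeded in 1536-well plates and dosed by pin tool the next day, with either a single drug or a fixed anchor-drug dose combined with five library-drug doses (not always all listed) spaced in √10 steps. Five days later, one step fixed the cells and stained their nuclei (final 0.05% Triton X-100, 1% formaldehyde, 1 ug/ml Hoechst), and nuclei were counted on 4× images. Relative viability is the nuclei count in treated wells divided by the count in vehicle wells, and each value is the median of duplicate plates.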

## LXF-289
First compound 0.02 µM
  relative viability: 0.662
First compound 0.2 µM
  relative viability: 0.755
First compound 0.6325 µM
  relative viability: 0.636
First compound 2 µM
  relative viability: 0.679

## HCC-366
First compound 0.02 µM
  relative viability: 0.423
First compound 0.06325 µM
  relative viability: 0.346
First compound 0.2 µM
  relative viability: 0.45
First compound 0.6325 µM
  relative viability: 0.321
First compound 2 µM
  relative viability: 0.432

## NCI-H1755
First compound 0.02 µM
  relative viability: 0.793
First compound 0.06325 µM
  relative viability: 0.811
First compound 0.2 µM
  relative viability: 0.839
First compound 0.6325 µM
  relative viability: 0.782
First compound 2 µM
  relative viability: 0.725

## NCI-H460
First compound 0.02 µM
  relative viability: 0.142
First compound 0.06325 µM
  relative viability: 0.102
First compound 0.2 µM
  relative viability: 0.199
First compound 0.6325 µM
  relative viability: 0.125
First compound 2 µM
  relative viability: 0.21

## SW 1573
First compound 0.02 µM
  relative viability: 0.614
First compound 0.06325 µM
  relative viability: 0.565
First compound 0.2 µM
  relative viability: 0.619
First compound 0.6325 µM
  relative viability: 0.618
First compound 2 µM
  relative viability: 0.631

## NCI-H2228
First compound 0.02 µM
  relative viability: 0.663
First compound 0.06325 µM
  relative viability: 0.338
First compound 0.2 µM
  relative viability: 0.467
First compound 0.6325 µM
  relative viability: 0.507
First compound 2 µM
  relative viability: 0.605

## 201T
First compound 0.02 µM
  relative viability: 0.694
First compound 0.06325 µM
  relative viability: 0.697
First compound 0.2 µM
  relative viability: 0.738
First compound 0.6325 µM
  relative viability: 0.681
First compound 2 µM
  relative viability: 0.7

## NCI-H2023
First compound 0.02 µM
  relative viability: 0.729
First compound 0.06325 µM
  relative viability: 0.6
First compound 0.2 µM
  relative viability: 0.564
First compound 2 µM
  relative viability: 0.618

## NCI-H2126
First compound 0.02 µM
  relative viability: 0.525
First compound 0.06325 µM
  relative viability: 0.43
First compound 0.2 µM
  relative viability: 0.565
First compound 0.6325 µM
  relative viability: 0.57
First compound 2 µM
  relative viability: 0.574

## COR-L 105
First compound 0.02 µM
  relative viability: 0.44
First compound 0.06325 µM
  relative viability: 0.495
First compound 0.2 µM
  relative viability: 0.452
First compound 0.6325 µM
  relative viability: 0.433
First compound 2 µM
  relative viability: 0.419

## UMC-11
First compound 0.02 µM
  relative viability: 0.706
First compound 0.06325 µM
  relative viability: 0.736
First compound 0.2 µM
  relative viability: 0.643
First compound 0.6325 µM
  relative viability: 0.896
First compound 2 µM
  relative viability: 0.717

## NCI-H2342
First compound 0.02 µM
  relative viability: 0.847
First compound 0.06325 µM
  relative viability: 0.814
First compound 0.2 µM
  relative viability: 0.869
First compound 0.6325 µM
  relative viability: 0.828
First compound 2 µM
  relative viability: 0.853

## SK-LU-1
First compound 0.02 µM
  relative viability: 0.465
First compound 0.06325 µM
  relative viability: 0.485
First compound 0.2 µM
  relative viability: 0.52
First compound 0.6325 µM
  relative viability: 0.514
First compound 2 µM
  relative viability: 0.529

## NCI-H1650
First compound 0.02 µM
  relative viability: 0.579
First compound 0.06325 µM
  relative viability: 0.471
First compound 0.2 µM
  relative viability: 0.404
First compound 0.6325 µM
  relative viability: 0.635
First compound 2 µM
  relative viability: 0.559

## NCI-H2085
First compound 0.02 µM
  relative viability: 0.49
First compound 0.06325 µM
  relative viability: 0.515
First compound 0.2 µM
  relative viability: 0.535
First compound 0.6325 µM
  relative viability: 0.58
First compound 2 µM
  relative viability: 0.513

## NCI-H1793
First compound 0.02 µM
  relative viability: 0.472
First compound 0.2 µM
  relative viability: 0.582
First compound 0.6325 µM
  relative viability: 0.404
First compound 2 µM
  relative viability: 0.368

## RERF-LC-KJ
First compound 0.02 µM
  relative viability: 0.806
First compound 0.06325 µM
  relative viability: 0.97
First compound 0.2 µM
  relative viability: 0.936
First compound 0.6325 µM
  relative viability: 0.909
First compound 2 µM
  relative viability: 0.771

## HCC-78
First compound 0.02 µM
  relative viability: 0.837
First compound 0.06325 µM
  relative viability: 0.613
First compound 0.2 µM
  relative viability: 0.9
First compound 0.6325 µM
  relative viability: 0.755
First compound 2 µM
  relative viability: 0.881

## LCLC-103H
First compound 0.02 µM
  relative viability: 0.752
First compound 0.06325 µM
  relative viability: 0.673
First compound 0.2 µM
  relative viability: 0.742
First compound 0.6325 µM
  relative viability: 0.655
First compound 2 µM
  relative viability: 0.658

## NCI-H1792
First compound 0.02 µM
  relative viability: 0.534
First compound 0.06325 µM
  relative viability: 0.311
First compound 0.2 µM
  relative viability: 0.521
First compound 2 µM
  relative viability: 0.427

## NCI-H358
First compound 0.02 µM
  relative viability: 0.14
First compound 0.06325 µM
  relative viability: 0.143
First compound 0.2 µM
  relative viability: 0.129
First compound 0.6325 µM
  relative viability: 0.139
First compound 2 µM
  relative viability: 0.121

## NCI-H1355
First compound 0.02 µM
  relative viability: 0.494
First compound 0.2 µM
  relative viability: 0.436
First compound 2 µM
  relative viability: 0.411

## PC-14
First compound 0.02 µM
  relative viability: 1.01
First compound 0.06325 µM
  relative viability: 1.18
First compound 0.2 µM
  relative viability: 1.11
First compound 0.6325 µM
  relative viability: 0.765
First compound 2 µM
  relative viability: 0.897

## A-427
First compound 0.02 µM
  relative viability: 0.745
First compound 0.06325 µM
  relative viability: 0.786
First compound 0.2 µM
  relative viability: 0.757
First compound 0.6325 µM
  relative viability: 0.76
First compound 2 µM
  relative viability: 0.712

## BEN
First compound 0.02 µM
  relative viability: 1.09
First compound 0.06325 µM
  relative viability: 1.02
First compound 0.2 µM
  relative viability: 1.05
First compound 0.6325 µM
  relative viability: 1.1
First compound 2 µM
  relative viability: 1.1

## NCI-H650
First compound 0.02 µM
  relative viability: 0.969
First compound 0.06325 µM
  relative viability: 0.833
First compound 0.2 µM
  relative viability: 0.937
First compound 0.6325 µM
  relative viability: 1.04
First compound 2 µM
  relative viability: 0.843

## NCI-H3122
First compound 0.02 µM
  relative viability: 0.25
First compound 0.06325 µM
  relative viability: 0.292
First compound 0.2 µM
  relative viability: 0.236
First compound 0.6325 µM
  relative viability: 0.253
First compound 2 µM
  relative viability: 0.216

## EMC-BAC-2
First compound 0.02 µM
  relative viability: 0.887
First compound 0.06325 µM
  relative viability: 1
First compound 0.2 µM
  relative viability: 0.904
First compound 0.6325 µM
  relative viability: 1.07
First compound 2 µM
  relative viability: 0.853

## HOP-62
First compound 0.02 µM
  relative viability: 0.376
First compound 0.2 µM
  relative viability: 0.359
First compound 0.6325 µM
  relative viability: 0.357
First compound 2 µM
  relative viability: 0.401

## NCI-H661
First compound 0.02 µM
  relative viability: 0.62
First compound 0.06325 µM
  relative viability: 0.419
First compound 0.2 µM
  relative viability: 0.649
First compound 0.6325 µM
  relative viability: 0.586
First compound 2 µM
  relative viability: 0.593

## NCI-H1993
First compound 0.02 µM
  relative viability: 0.45
First compound 0.06325 µM
  relative viability: 0.482
First compound 0.2 µM
  relative viability: 0.622
First compound 0.6325 µM
  relative viability: 0.447
First compound 2 µM
  relative viability: 0.584

## NCI-H647
First compound 0.02 µM
  relative viability: 0.512
First compound 0.06325 µM
  relative viability: 0.414
First compound 0.2 µM
  relative viability: 0.563
First compound 0.6325 µM
  relative viability: 0.365
First compound 2 µM
  relative viability: 0.458

## EPLC-272H
First compound 0.02 µM
  relative viability: 0.256
First compound 0.6325 µM
  relative viability: 0.295
First compound 2 µM
  relative viability: 0.268

## NCI-H1915
First compound 0.02 µM
  relative viability: 0.328
First compound 0.2 µM
  relative viability: 0.293
First compound 0.6325 µM
  relative viability: 0.304
First compound 2 µM
  relative viability: 0.312
